# Results: patent publication US7176199B2, “Aryl-substituted alicyclic compound and medical composition comprising the same” (Dainippon Pharmaceutical Co., Ltd., priority 2001, dated 2007)
# Key:
# αIIbβ3 integrin = target: T1, αIIbβ3 integrin (Homo sapiens, UniProt P05106+P08514); assay: Assay for the inhibition of αIIbβ3 integrin binding (fibrinogen as ligand, integrin captured from platelet lysate); details: inhibition of specific binding of biotinylated fibrinogen to αIIbβ3 integrin from human platelet lysate
# T1 construct: from tissue; host or cells: human platelets (Triton X-100 lysate)
# Description: Experiment 2: Assay for the Inhibition of αIIbβ3 Integrin Binding
# This experiment was carried out based on the method described in Thromb. Haemostasis, 75, 339 (1996), Blood, 93, 2559 (1999), using fibrinogen as a ligand. According to the method described in the above literatures, assay for the inhibition of αIIbβ3 integrin binding can be achieved by capturing αIIbβ3 integrin from platelet lysate with the use of an activated antibody against αIIbβ3 integrin.
# Human platelets were isolated in a conventional manner. At 25° C., the isolated platelets were adjusted to a concentration of 1.25×10^9/ml with TBS+[50 mM Tris-HCl (pH 7.4), 150 mM NaCl, 2 mM CaCl2], and then ⅛ volume of TBS^+ containing 2 mM leupepsin and 10 mM PMSF was added and stirred gently. Nest, 1/9 volume of TBS+ containing 10% Triton X-100 was added and stirred gently. After standing on ice for 30 minutes, a platelet lysate was prepared from the mixture by discarding the insoluble fraction with centrifugation (10,000 g, 15 minutes).
# Anti-mouse IgG goat antibody (Jackson Immunoresearch Laboratories, Inc., USA) was adjusted to a concentration of 5 μg/ml with sodium carbonate buffer (pH 9.6) and added to plates at 50 μl/well. The plate was left at 4° C. overnight for immobilization of the antibody. All subsequent steps were done at 25° C., and the procedure for each well was described hereafter.
# The well was washed once with TBS^+, and then 200 μl of TBS^+ containing 5% BSA was added to the well and left for one hour for blocking. The well was washed with a reaction solution (TBS^+ containing 0.1% BSA and 0.05% Triton X-100) 4 times, and then 50 μl of anti-human αIIbβ3 integrin activated monoclonal antibody (TAKARA SHUZO CO., LTD, Japan, PT25-2 strain) adjusted to 5 μg/ml with the reaction solution was added to the well. After one hour reaction, the well was washed 4 times with the reaction solution, and 50 μl of the platelet lysate diluted 1:2 with the reaction solution was added to the well. Following 2 hours reaction, the well was washed 4 times with the reaction solution, and 50 μl of the reaction solution was added to the well. Subsequently, 25 μl of a test compound solution adjusted to each concentration with the reaction solution was added, and then mixed with 25 μl of biotinylated fibrinogen (Calbiochem, Germany) adjusted to 2 μg/ml with the reaction solution. The mixture was reacted for one hour. After washing 4 times with the reaction solution, 100 μl of alkaline phosphatase-labeled streptoavidin (Gibco BRL, USA) diluted 1:500 with the reaction solution was added to the well. Following 30 minutes reaction, the well was washed 4 times with the wash solution. Next, 50 μl of the NaDPH solution (Invitrogen, former company name: Gibco BRL, USA) was added and reacted for 20 minutes, and then 50 μl of an amplification solution containing diaphorase and alcohol dehydrogenase (Invitrogen, former company name: Gibco BRL, USA) was added. Color was developed for 20 minutes and the reaction was stopped by adding 50 μl of 0.5 M sulfuric acid.
# (§1) The absorbance at 495 nm was measured with a plate reader to obtain a total binding. To obtain a nonspecific binding, EDTA adjusted to 20 mM with the reaction solution was added instead of the test compound solution. A specific binding was calculated by subtracting the nonspecific binding from the total binding.
# αvβ3 integrin = αvβ3 integrin (Homo sapiens, UniProt P05106+P06756); assay: Assay for the inhibition of αvβ3 integrin binding (vitronectin as ligand); set-up: purchased Chemicon International, Inc., USA; details: inhibition of specific binding of biotinylated human vitronectin to immobilized αvβ3 integrin
# Description: Experiment 1: Assay for the Inhibition of αvβ3 integrin binding
# This experiment was carried out based on the method described in […].
# Purified human αvβ3 integrin (Chemicon International, Inc., USA) was adjusted to a concentration of 1 μg/ml with TBS^++ [20 mM Tris-HCl (pH 7.4), 150 mM NaCl, 1 mM CaCl2, 1 mM MgCl2], and the diluted solution was added to plates (Labsystems, Finland) at 50 μl/well. The plate was left at 4° C. overnight for immobilization of the αvβ3 integrin. All subsequent steps were done at 25° C., and the procedure for each well was described hereafter.
# The solution was discarded, and then 200 μl of TBS^++ containing 1% BSA (Wako Pure Chemical Industries, Ltd., Japan) was added to the well and left for one hour for blocking. The well was washed with a wash solution (TBS^++ containing 0.01% Tween 20) 4 times, and 50 μl of a reaction solution (TBS^++ containing 0.1% BSA and 0.01% Tween 20) was added to the well. Subsequently, 25 μl of a test compound solution adjusted to each concentration with the reaction solution was added, and then mixed with 25 μl of biotinylated (Amersham Pharmacia Biotech, UK) human vitronectin (Gibco BRL, USA) adjusted to 0.4 μg/ml with the reaction solution. The mixture was reacted for 2 hours. After washing 4 times with the wash solution, 100 μl of peroxidase-labeled streptoavidin (Amersham Pharmacia Biotech, UK) diluted 1:500 with the reaction solution was added to the well. Following 30 minutes reaction, the well was washed 4 times with the wash solution, and 100 μl of a TMB substrate solution (Bio-Rad Laboratories, USA) was added to the well. Color was developed for 20 minutes and the reaction was stopped by adding 100 μl of 0.5 M sulfuric acid.
# as §1, with “450” for “495”, “reader (Molecular Devices, USA)” for “reader”
# T1 sequence (P08514 32-887 limits assumed): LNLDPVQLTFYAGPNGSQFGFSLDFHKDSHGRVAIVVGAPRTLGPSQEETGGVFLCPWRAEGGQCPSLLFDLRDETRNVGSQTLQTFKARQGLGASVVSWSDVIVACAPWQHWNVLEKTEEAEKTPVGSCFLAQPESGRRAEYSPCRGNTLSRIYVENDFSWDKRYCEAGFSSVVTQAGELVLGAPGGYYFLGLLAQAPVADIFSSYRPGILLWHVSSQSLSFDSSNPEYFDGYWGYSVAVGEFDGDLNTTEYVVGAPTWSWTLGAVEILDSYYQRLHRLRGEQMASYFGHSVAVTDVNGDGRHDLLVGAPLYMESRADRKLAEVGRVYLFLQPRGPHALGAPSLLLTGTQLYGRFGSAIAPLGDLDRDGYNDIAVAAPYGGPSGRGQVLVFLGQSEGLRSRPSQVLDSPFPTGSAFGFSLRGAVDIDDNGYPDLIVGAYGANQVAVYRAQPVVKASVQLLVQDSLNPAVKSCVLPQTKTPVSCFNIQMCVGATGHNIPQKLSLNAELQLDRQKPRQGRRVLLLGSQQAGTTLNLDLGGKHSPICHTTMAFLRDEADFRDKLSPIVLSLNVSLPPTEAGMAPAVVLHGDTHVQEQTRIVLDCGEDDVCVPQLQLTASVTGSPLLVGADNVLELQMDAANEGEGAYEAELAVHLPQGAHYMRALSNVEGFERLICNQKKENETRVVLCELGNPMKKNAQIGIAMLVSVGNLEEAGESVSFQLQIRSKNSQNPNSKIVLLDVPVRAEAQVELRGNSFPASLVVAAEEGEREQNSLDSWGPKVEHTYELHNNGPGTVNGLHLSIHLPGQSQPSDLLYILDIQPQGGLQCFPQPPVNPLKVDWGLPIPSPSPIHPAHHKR
# T1 sequence (P08514 891-1039 partner limits assumed): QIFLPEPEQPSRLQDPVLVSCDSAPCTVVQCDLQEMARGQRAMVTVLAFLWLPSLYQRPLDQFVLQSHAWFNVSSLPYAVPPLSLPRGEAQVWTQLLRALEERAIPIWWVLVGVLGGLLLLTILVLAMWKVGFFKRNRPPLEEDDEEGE
# T1 sequence (P05106 27-788): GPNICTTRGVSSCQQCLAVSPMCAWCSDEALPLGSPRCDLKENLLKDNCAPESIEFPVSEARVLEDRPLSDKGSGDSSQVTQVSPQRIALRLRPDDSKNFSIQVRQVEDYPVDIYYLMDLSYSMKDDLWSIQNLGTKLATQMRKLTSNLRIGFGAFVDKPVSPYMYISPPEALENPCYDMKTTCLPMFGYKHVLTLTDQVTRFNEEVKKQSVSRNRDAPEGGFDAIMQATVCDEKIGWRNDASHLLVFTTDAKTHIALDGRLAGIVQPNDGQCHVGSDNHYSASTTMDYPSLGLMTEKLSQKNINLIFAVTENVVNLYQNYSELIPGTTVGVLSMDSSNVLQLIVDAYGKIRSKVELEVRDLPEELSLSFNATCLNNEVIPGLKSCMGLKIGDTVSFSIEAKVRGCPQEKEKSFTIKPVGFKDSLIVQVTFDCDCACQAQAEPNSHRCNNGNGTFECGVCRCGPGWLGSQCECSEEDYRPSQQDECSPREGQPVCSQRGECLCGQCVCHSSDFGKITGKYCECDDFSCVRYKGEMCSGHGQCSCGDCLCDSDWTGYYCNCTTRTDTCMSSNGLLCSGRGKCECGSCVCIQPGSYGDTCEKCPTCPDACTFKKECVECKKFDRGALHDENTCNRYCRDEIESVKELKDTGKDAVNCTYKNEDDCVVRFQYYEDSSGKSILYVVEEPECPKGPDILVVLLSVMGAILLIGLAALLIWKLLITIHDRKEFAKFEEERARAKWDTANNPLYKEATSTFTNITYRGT
# αvβ3 integrin, sequence (P06756 31-889 limits assumed): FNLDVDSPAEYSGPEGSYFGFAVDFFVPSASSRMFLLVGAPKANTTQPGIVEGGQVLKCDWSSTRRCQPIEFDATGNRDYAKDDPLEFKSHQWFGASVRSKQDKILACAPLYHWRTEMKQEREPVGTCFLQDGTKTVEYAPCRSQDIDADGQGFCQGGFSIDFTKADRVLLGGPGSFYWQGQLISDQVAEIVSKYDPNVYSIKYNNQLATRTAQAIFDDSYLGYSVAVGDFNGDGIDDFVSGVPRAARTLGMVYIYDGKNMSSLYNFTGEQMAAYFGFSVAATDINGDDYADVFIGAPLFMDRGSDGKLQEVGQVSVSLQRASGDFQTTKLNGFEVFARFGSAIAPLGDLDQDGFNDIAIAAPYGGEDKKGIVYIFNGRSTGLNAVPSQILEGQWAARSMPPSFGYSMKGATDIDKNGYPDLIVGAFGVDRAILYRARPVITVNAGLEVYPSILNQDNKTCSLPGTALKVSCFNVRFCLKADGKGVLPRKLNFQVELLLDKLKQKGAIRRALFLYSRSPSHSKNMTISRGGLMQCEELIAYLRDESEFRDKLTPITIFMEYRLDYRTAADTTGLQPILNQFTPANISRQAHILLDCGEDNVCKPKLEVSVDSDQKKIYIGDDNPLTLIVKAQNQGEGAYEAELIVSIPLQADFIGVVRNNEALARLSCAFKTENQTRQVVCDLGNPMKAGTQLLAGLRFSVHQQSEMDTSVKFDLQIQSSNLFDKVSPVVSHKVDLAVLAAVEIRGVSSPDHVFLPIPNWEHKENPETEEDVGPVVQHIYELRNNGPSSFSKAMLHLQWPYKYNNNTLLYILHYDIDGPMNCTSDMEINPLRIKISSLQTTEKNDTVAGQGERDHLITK
# αvβ3 integrin, sequence (P06756 891-1048 partner limits assumed): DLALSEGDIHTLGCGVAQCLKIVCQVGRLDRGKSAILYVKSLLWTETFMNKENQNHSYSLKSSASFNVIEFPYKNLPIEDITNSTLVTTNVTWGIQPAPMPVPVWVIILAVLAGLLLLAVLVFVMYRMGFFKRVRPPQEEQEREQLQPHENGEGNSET
# αvβ3 integrin, sequence (P05106 27-788): as the sequence (P05106 27-788) above
Compound,IC50 (αIIbβ3 integrin) [nM],IC50 (αvβ3 integrin) [nM]
"O=C(N[C@@H](CNC(=O)C1CCC(c2cccc(NC3=NCCCN3)c2)CC1)C(=O)O)OCc1ccccc1 (single isomer, unassigned) [Ex. 151B]",510,1.9
"O=C(N[C@@H](CNC(=O)C1CCN(c2cccc(NC3=NCCN3)c2)CC1)C(=O)O)OCc1ccccc1 [Ex. 9, (2S)-2-benzyloxycarbonylamino-3-[[1-[3-(2-imidazolin-2-yl)aminophenyl]piperidin-4-yl]carbonylamino]propanoic acid]",54,0.059
"CC(C)COC(=O)N[C@@H](CNC(=O)C1CCN(c2cccc(NC3=NCC(C)(C)CN3)c2)CC1)C(=O)O [Ex. 18, (2S)-2-isobutoxycarbonylamino-3-[[1-[3-(5,5-dimethyl-1,4,5,6-tetrahydropyrimidin-2-yl)aminophenyl]piperidin-4-yl]carbonylamino]-propanoic acid]",310,0.13
"CC(C)COC(=O)N[C@@H](CNC(=O)C1CCN(c2cccc(NC3=NCC(F)CN3)c2)CC1)C(=O)O (stereo partly drawn) [Ex. 19, (2S)-2-isobutoxycarbonylamino-3-[[1-[3-(5-fluoro-1,4,5,6-tetrahydropyrimidin-2-yl)aminophenyl]piperidin-4-yl]carbonylamino]-propanoic acid]",100,0.032
"CC(C)COC(=O)N[C@@H](CNC(=O)C1CCN(c2cccc(NC3=NCC(O)CN3)c2)CC1)C(=O)O (stereo partly drawn) [Ex. 20, (2S)-2-Isobutoxycarbonylamino-3-[[1-[3-(5-hydroxy-1,4,5,6-tetrahydropyrimidin-2-yl)aminophenyl]piperidin-4-yl]carbonylamino]-propanoic acid]",37,0.061
"CC(C)COC(=O)N[C@@H](CCC(=O)N1CCN(c2cccc(NC3=NCC(F)CN3)c2)CC1)C(=O)O (stereo partly drawn) [Ex. 127, (2S)-2-Isobutoxycarbonylamino-5-[4-[3-(5-fluoro-1,4,5,6-tetrahydropyrimidin-2-yl)aminophenyl]piperazin-1-yl]-5-oxopentanoic acid]",,0.055
CC(C)COC(=O)N[C@@H](CCC(=O)N1CCN(c2cccc(NC3=NCC(O)CN3)c2)CC1)C(=O)O (some centres unmarked) [Ex. 128],,0.3
"CC(C)COC(=O)N[C@@H](CCC(=O)N1CCN(c2cccc(NC3=NCCCN3)c2)CC1)C(=O)O [Ex. 138, (2S)-2-isobutoxycarbonylamino-5-[4-[3-(1,4,5,6-tetrahydropyrimidin-2-yl)aminophenyl]piperazin-1-yl]-5-oxopentanoic acid]",,0.32
O=C(Cc1ccccc1)N[C@@H](CCC(=O)N1CCN(c2cccc(NC3=NCCCN3)c2)CC1)C(=O)O [Ex. 139],,6.8

# Continued by falling IC50 (αvβ3 integrin), values first:
IC50 (αIIbβ3 integrin) [nM],IC50 (αvβ3 integrin) [nM],Compound
4600,5.1,"O=C(NCc1ccccc1)Nc1cccc(N2CCC(C(=O)NC[C@H](NC(=O)OCc3ccccc3)C(=O)O)CC2)c1 [Ex. 30, (2S)-3-{[1-[3-(benzylaminocarbonyl)aminophenyl]-piperidin-4-yl}carbonylamino]-2-(benzyloxycarbonylamino)propanoic acid]"
,3.6,CCNC(=O)N[C@@H](CCC(=O)N1CCN(c2cccc(NC3=NCCCN3)c2)CC1)C(=O)O [Ex. 142]
,1.4,O=C(NCc1ccccc1)N[C@@H](CCC(=O)N1CCN(c2cccc(NC3=NCCCN3)c2)CC1)C(=O)O [Ex. 143]
,0.59,CCOC(=O)N[C@@H](CCC(=O)N1CCN(c2cccc(NC3=NCCCN3)c2)CC1)C(=O)O [Ex. 136]
,0.38,CC(C)COC(=O)N[C@@H](CCC(=O)N1CCN(c2cccc(NC3=NCC(C)(C)CN3)c2)CC1)C(=O)O [Ex. 126]
87,0.14,"CC1(C)CN=C(Nc2cccc(N3CCC(C(=O)NC[C@H](NC(=O)OCc4ccccc4)C(=O)O)CC3)c2)NC1 [Ex. 11, (2S)-2-benzyloxycarbonylamino-3-[[1-[3-(5,5-dimethyl-1,4,5,6-tetrahydropyrimidin-2-yl)aminophenyl]piperidin-4-yl]carbonylamino]-propanoic acid]"
800,0.11,"CC(C)OC(=O)N[C@@H](CNC(=O)C1CCN(c2cccc(NC3=NCCCN3)c2)CC1)C(=O)O [Ex. 44, (2S)-2-isopropoxycarbonylamino-3-[[1-[3-(1,4,5,6-tetrahydropyrimidin-2-yl)aminophenyl]piperidin-4-yl]carbonylamino]-propanoic acid]"
,0.077,"O=C(N[C@@H](CCC(=O)N1CCN(c2cc(NC3=NCCCN3)ccc2F)CC1)C(=O)O)OCc1ccccc1 [Ex. 155, (2S)-2-benzyloxycarbonylamino-5-[4-[2-fluoro-5-(1,4,5,6-tetrahydropyrimidin-2-yl)aminophenyl]piperazin-1-yl]-5-oxopentanoic acid]"
74,0.075,"O=C(N[C@@H](CNC(=O)C1CCN(c2cccc(NC3=NCCCCN3)c2)CC1)C(=O)O)OCc1ccccc1 [Ex. 10, (2S)-2-benzyloxycarbonylamino-3-[[1-[3-(1H-4,5,6,7-tetrahydro-1,3-diazepin-2-yl)aminophenyl]piperidin-4-yl]carbonylamino]propanoic acid]"
37,0.074,"O=C(N[C@@H](CNC(=O)C1CCC(c2cccc(NC3=NCCCN3)c2)CC1)C(=O)O)OCc1ccccc1 (single isomer, unassigned) [Ex. 151A]"
43,0.06,"O=C(N[C@@H](CNC(=O)C1CCN(c2cccc(NC3=NCCCN3)c2)CC1)C(=O)O)OCc1ccccc1 [Ex. 2, (2S)-2-benzyloxycarbonylamino-3-[[1-[3-(1,4,5,6-tetrahydropyrimidin-2-yl)aminophenyl]piperidin-4-yl]carbonylamino]propanoic acid]"
95,0.057,"O=C(N[C@@H](CNC(=O)C1CCN(c2cccc(NC3=NCC(F)(F)CN3)c2)CC1)C(=O)O)OCc1ccccc1 [Ex. 12, (2S)-2-benzyloxycarbonylamino-3-[[1-[3-(5,5-difluoro-1,4,5,6-tetrahydropyrimidin-2-yl)aminophenyl]piperidin-4-yl]carbonylamino]-propanoic acid]"
59,0.042,"O=C(N[C@@H](CNC(=O)C1CCN(c2cccc(NC3=NCC(F)CN3)c2)CC1)C(=O)O)OCc1ccccc1 (stereo partly drawn) [Ex. 13, (2S)-2-benzyloxycarbonylamino-3-[[1-[3-(5-fluoro-1,4,5,6-tetrahydropyrimidin-2-yl)aminophenyl]piperidin-4-yl]carbonylamino]-propanoic acid]"
